Laboratory results published in patent US20250388571A1, “AMP-ACTIVATED PROTEIN KINASE MODULATOR COMPOUNDS AND USES THEREOF” (Biolexis Therapeutics, Inc., priority 2024, published 2025).
Read-outs that look alike come from different tables or passages of the source.

Key:
[1] = system: AMPK signaling in human liver cells; assay: Western blot assay, human liver cells (Biological Example 1); type: cell-based
Method: After treatment, cells were analyzed using a glucose uptake assay and a western blot assay for human skeletal myoblasts, human cardiomyocytes cells, human hepatocytes-THLE-2 cells, preadipocyte HWP-c cells.
(§2) Samples for immunoblotting studies were prepared for electrophoresis by adding in a final concentration of 1× Laemmli loading buffer (supplemented with 5% 2-mercaptoethanol). Samples were then electrophorized by SDS-PAGE (4-15% or 4-20% Criterion TGX Precast gel, Bio-Rad) at a constant voltage within the range of 140V. Proteins were transferred to a nitrocellulose membrane (Bio-Rad) using the Trans-Blot Turbo transfer system (Bio-Rad). Membranes were blocked with 5% BSA in TBST for a minimum of 1 hour at room temperature before incubating with the following primary antibodies: • Phospho-AMPKα (Thr172) (40H9) Rabbit mAb (CST, cat no: 2535S), • AMPKα Antibody (CST, cat no: 2532S) • Phospho-Raptor (Ser792) Antibody (CST, cat no: 2083S) • Raptor (24C12) Rabbit mAb (CST, cat no: 2280S) • Phospho-Acetyl-CoA Carboxylase (Ser79) Antibody (CST, cat no: 3661S) • Acetyl-CoA Carboxylase Antibody (CST, cat no: 3662S) • AMPKα2 Antibody (CST, cat no: 2757S) • AMPKβ1 antibody (CST, cat no: 12063) • AMPKβ2 Antibody (CST, CST, cat no: 4148S) • AMPKγ3 Antibody (CST, cat no: 2550S).

in vivo = type: in vivo; conditions: dog
Method: A total of 3 animals were segregated in to one group and each animal received oral dose followed by intravenous infusion (15 minutes) as a cross over design with 7 days of no dose interval between periods. […] Similarly, in period 2 after 7 days of no dose interval, animals were received intravenous infusion for 15 min at a dose of 1 mg/kg via saphenous vein at a dose volume of 1 mL/kg, each dog was observed after administration of the test item for presence or absence of clinical signs.
A total of 11 time points for oral and 12 blood samples for IV per each animal were collected, approximately 1 mL were collected from each dog in pre-labeled Eppendorf tubes containing 20 μL/mL of 200 mM K2 EDTA. Blood was withdrawn at scheduled time points via cephalic vein in pre-labelled Eppendorf tubes. The pre-dose blood sample was collected before to drug administration. Post dose samples were collected within stipulated time. The blood samples were kept on crushed ice to maintain the temperature until centrifugation. Plasma was separated and stored under −70° C. […] The PK parameters were evaluated using Phoenix WinNonlin® Ent-Version 8.3 by non-compartmental analysis.

db/db mice = conditions: for Plasma Cholesterol / Plasma HDL / Plasma LDL / Plasma Triglyceride: end of the study; for Absolute Liver Weight / Absolute Liver Weight (g) [table follows b2014 on epididymal adipose tissue weight] / Relative Epididymal Tissue Weight / Relative Liver Weight: necropsy; for Fasting Plasma Glucose (mg/dL), OGTT: OGTT day 21, before glucose load 1 gram/kg
Method: The doses of the test item to be administered were calculated daily in mg/kg based on the latest bodyweight of the animal. The dose volume was calculated based on mg/kg of body weight and adjusted with each bodyweight collection. Dose and route of the test compounds administration are selected as per the supporting literature.
Male db/db mice were procured from The Jackson Laboratory. All the animals were allowed to quarantine for 7 days and acclimatize for one day prior to experiment initiation. During this period, mice were observed daily once for clinical signs. On Day 1, Animals were randomized based on body weight and blood glucose levels (Accu-Chek) into three groups. […] During the study period the body weight of mice was recorded weekly thrice, and clinical scoring was done on daily basis. The OGTT was performed on day 21. On day 36 blood was collected and centrifuged at 4° C., 10,000 RPM for 10 minutes for plasma collection. The plasma stored at −80° C. for estimation of plasma HDL and LDL. All the animals were humanely sacrificed by CO2. At the time of necropsy liver, adipose tissue and pancreas weight were taken. The liver and pancreas were stored at −80° C.
(§1) A mixture of DMSO (2%), Cremophor EL (2%), Tween 80 (1%), 0.5% methyl cellulose (35%), and water (60%) was used for the formulation. Doses were prepared at concentrations of 30 and 50 mg/kg. Administration was oral, daily for 36 days. Male mice (Mus musculus; db/db C57BL/6) aged 8-9 weeks and weighing less than or equal to 40 grams were used for the study. Groups were assigned 10 mice per group.
During the study period body weight of mice were recorded weekly thrice and clinical scoring were done on daily basis. The OGTT was performed on day 21. On day 36 blood was collected and centrifuged at 4° C., 10000 RPM for 10 minutes for plasma collection. The plasma stored at −80° C. for estimation of plasma HDL and LDL. All the animals were humanely sacrificed by CO2. At the time of necropsy liver, adipose tissue and pancreas weight were taken. Liver and pancreas were stored at −80° C.
Cage-side observations were made to detect any changes and general activity of the animals.
Body weight of each mouse was recorded at the time of randomization and thrice a week during study period. OGTT were done at day 21. On day 20 mice were fasted over night and on day 21 mice were treated with respective treatment-60 minute prior to glucose load 1 gram/kg. Plasma glucose was measured at 0 min (before glucose load), 15 min, 30 min, 60 min, 90 min and 120 min.
Glucose estimation in urine was done at terminal point on day 32. The urine of individual mice was collected by placing the mice in metabolic cages. Urine glucose levels were measured by calorimetric method in collected urine.
Plasma lipid profile: Triglyceride, HDL and LDL were performed at the end of the study by appropriate kit or using Fully Auto Biochemistry Analyzer Selectra PRO M Lite. Fat pad weight was recorded at terminal point. Fructosamine were measured by ELISA kit (Biomol, G-MOEB2562.96).
All data is expressed as mean±SEM unless otherwise noted. Statistical analysis was done with GraphPad Prism-5 using one-way ANOVA followed by Dunnett's test/Tukey's post hoc test. Data were considered statistically significant if P value is less than 0.05.

[2] = Plasma, liver and adipose tissue concentration in db/db mice, day 36; type: in vivo, mice (Mus musculus; db/db C57BL/6); conditions: post 4 hours dosing on day 36; for concentration at 4 h: male, db/db C57BL/6, mouse, oral
Method: as §1
G2 and G3 plasma, liver and adipose tissue samples were collected post 4 hours dosing on day 36.

[3] = system: AMPK signal pathway in C2C12 cells; assay: Western blot assay, C2C12 cells
Method: Samples for immunoblotting studies were prepared for electrophoresis by adding in a final concentration of 1× Laemmli loading buffer (supplemented with 5% 2-mercaptoethanol). Samples were then electrophorized by SDS-PAGE (4-15% or 4-20% Criterion TGX Precast gel, Bio-Rad) at a constant voltage within the range of 140V. Proteins were transferred to a nitrocellulose membrane (Bio-Rad) using the Trans-Blot Turbo transfer system (Bio-Rad). Membranes were blocked with 5% BSA in TBST for a minimum of 1 hour at room temperature before incubating with the following primary antibodies: • Phospho-AMPKα (Thr172) (40H9) Rabbit mAb (CST, cat no: 2535S), • AMPKα Antibody (CST, cat no: 2532S) • Phospho-Raptor (Ser792) Antibody (CST, cat no: 2083S) • Raptor (24C12) Rabbit mAb (CST, cat no: 2280S) • Phospho-Acetyl-CoA Carboxylase (Ser79) Antibody (CST, cat no: 3661S) • Acetyl-CoA Carboxylase Antibody (CST, cat no: 3662S) • AMPKα2 Antibody (CST, cat no: 2757S) • AMPKβ1 antibody (CST, cat no: 12063) • AMPKβ2 Antibody (CST, CST, cat no: 4148S) • AMPKγ3 Antibody (CST, cat no: 2550S). […]
After differentiation of cells (e.g., HSKM, C2C12, L6) for 5 days, medium was changed to DHEM without FBS and glucose for starving cells for 2 hours. […] The resultant reaction mixture was then assayed and semi-quantitative histogram analysis of Western Blotting (signal value) was used to determine results.

[4] = system: AMPK signal pathway in human liver cells-HepG2; assay: Western blot assay, HepG2 cells
Method: as §2

HCM cells = assay: CyQUANT Cytotoxicity Assay (G6PD assay), HCM; conditions: treated 2 hours
HepG2 cells = assay: CyQUANT Cytotoxicity Assay (G6PD assay), HepG2; conditions: treated 2 hours

O=c1[nH]c(-c2c[nH]c3cc(F)c(-c4ccc(C5(O)CCC5)cc4)c(F)c23)no1 [Compound I-11, 3-(4,6-difluoro-5-(4-(1-hydroxycyclobutyl)phenyl)-1H-indol-3-yl)-1,2,4-oxadiazol-5(4H)-one]
AMPK signaling activation [1]: dose-dependent manner | systemic exposure, oral administration (in vivo; 5 mg/kg oral): low systemic exposure | bioavailability (in vivo; male, Beagle, plasma, 5 mg/kg oral compared with intravenous infusion (1 mg/kg)): 5.27 ± 2.94% | Fasting Fructosamine (db/db mice; 30 mg/kg p.o. QD): 1164.8 ± 105.5 ng/mL | Fasting Plasma HbA1c (db/db mice; 30 mg/kg p.o. QD): 60.13 ± 7.73 ng/mL | Fasting Plasma Insulin (db/db mice; 30 mg/kg p.o. QD): 4.6 ± 0.5 ng/mL | Fasting Blood Glucose (~12 hrs) (db/db mice; 30 mg/kg p.o. QD, Day 36): 335.70 ± 16.88 mg/dL | Urine Glucose (db/db mice; 30 mg/kg p.o. QD, day 32): 1694.43 ± 10.56 mg/dL | Plasma Cholesterol (db/db mice; 30 mg/kg p.o. QD): 118.13 ± 8.39 mg/dL | Plasma HDL (db/db mice; 30 mg/kg p.o. QD): 145.41 ± 11.48 mg/dL | Plasma LDL (db/db mice; 30 mg/kg p.o. QD): 23.58 ± 2.93 mg/dL | Plasma Triglyceride (db/db mice; 30 mg/kg p.o. QD): 156.87 ± 17.41 mg/dL | Absolute Liver Weight (db/db mice; 30 mg/kg p.o. QD): 2.34 ± 0.07 g | Absolute Liver Weight (g) [table follows b2014 on epididymal adipose tissue weight] (db/db mice; 30 mg/kg p.o. QD): 2.42 ± 0.10 g | Relative Epididymal Tissue Weight (db/db mice; 30 mg/kg p.o. QD): 0.057 ± 0.002 g | Relative Liver Weight (db/db mice; 30 mg/kg p.o. QD): 0.055 ± 0.001 g | 15 min Plasma Glucose (mg/dL), OGTT (db/db mice; 30 mg/kg, OGTT day 21): 676.20 ± 19.94 mg/dL | 30 min Plasma Glucose (mg/dL), OGTT (db/db mice; 30 mg/kg, OGTT day 21): 619.54 ± 26.68 mg/dL | 60 min Plasma Glucose (mg/dL), OGTT (db/db mice; 30 mg/kg, OGTT day 21): 520.87 ± 46.63 mg/dL | 120 min Plasma Glucose (mg/dL), OGTT (db/db mice; 30 mg/kg, OGTT day 21): 397.78 ± 9.65 mg/dL | glucose area under the curve (AUC), OGTT (db/db mice; 30 mg/kg, OGTT day 21): 61613.10 ± 2572.98 mg·min/dL | Fasting Plasma Glucose (mg/dL), OGTT (db/db mice; 30 mg/kg): 287.70 ± 34.54 mg/dL | decrease in the plasma glucose compared to vehicle control (OGTT) (db/db mice; 30 mg/kg, statistically not significant): 7.5% | Fasting Fructosamine (db/db mice; 50 mg/kg p.o. QD): 954.2 ± 45.6 ng/mL | Fasting Plasma HbA1c (db/db mice; 50 mg/kg p.o. QD): 39.82 ± 4.31 ng/mL | Fasting Plasma Insulin (db/db mice; 50 mg/kg p.o. QD): 5.2 ± 0.8 ng/mL | Plasma Cholesterol (db/db mice; 50 mg/kg p.o. QD): 97.30 ± 8.76 mg/dL | Plasma HDL (db/db mice; 50 mg/kg p.o. QD): 110.76 ± 9.17 mg/dL | Plasma LDL (db/db mice; 50 mg/kg p.o. QD): 14.78 ± 1.62 mg/dL | Plasma Triglyceride (db/db mice; 50 mg/kg p.o. QD): 97.55 ± 11.60 mg/dL | Absolute Liver Weight (db/db mice; 50 mg/kg p.o. QD): 2.34 ± 0.06 g | Absolute Liver Weight (g) [table follows b2014 on epididymal adipose tissue weight] (db/db mice; 50 mg/kg p.o. QD): 2.58 ± 0.07 g | Relative Epididymal Tissue Weight (db/db mice; 50 mg/kg p.o. QD): 0.061 ± 0.001 g | Relative Liver Weight (db/db mice; 50 mg/kg p.o. QD): 0.056 ± 0.001 g | 15 min Plasma Glucose (mg/dL), OGTT (db/db mice; 50 mg/kg, OGTT day 21): 670.72 ± 23.88 mg/dL | 30 min Plasma Glucose (mg/dL), OGTT (db/db mice; 50 mg/kg, OGTT day 21): 560.85 ± 37.42 mg/dL | 60 min Plasma Glucose (mg/dL), OGTT (db/db mice; 50 mg/kg, OGTT day 21): 485.98 ± 32.31 mg/dL | 120 min Plasma Glucose (mg/dL), OGTT (db/db mice; 50 mg/kg, OGTT day 21): 378.40 ± 18.24 mg/dL | glucose area under the curve (AUC), OGTT (db/db mice; 50 mg/kg, OGTT day 21): 57436.00 ± 2283.79 mg·min/dL | Fasting Plasma Glucose (mg/dL), OGTT (db/db mice; 50 mg/kg): 204.64 ± 29.60 mg/dL | decrease in the plasma glucose compared to vehicle control (OGTT) (db/db mice; 50 mg/kg, significant): 14% | fasting blood glucose levels compared with vehicle control, dose dependence (db/db mice; 30 & 50 mg/kg p.o. QD, day 21, 28, and 36): dose-dependent decrease | clinical signs, morbidity, mortality (db/db mice; 30 and 50 mg/kg oral, daily for 36 days): no observations of clinical signs or morbidity, and no mortality | glucose as measured by area under the curve (AUC), dose dependence (db/db mice; 30 and 50 mg/kg, OGTT day 21): dose dependent decreases | Liver (ng/mL), PK concentration, Average ([2]; 30 mg/kg): BLQ | Liver (ng/mL), PK concentration, Average ([2]; 50 mg/kg): BLQ | concentration at 4 h ([2]; adipose tissue, 30 mg/kg, read-out: Adipose tissue (ng/mL), PK concentration, Average): 19.5 ng/mL | concentration at 4 h ([2]; adipose tissue, 50 mg/kg, read-out: Adipose tissue (ng/mL), PK concentration, Average): 11 ng/mL | concentration at 4 h ([2]; plasma, 30 mg/kg, read-out: Plasma (ng/mL), PK concentration, Average): 244 ng/mL | concentration at 4 h ([2]; plasma, 50 mg/kg, read-out: Plasma (ng/mL), PK concentration, Average): 197 ng/mL | pAMPK/pACC/AMPKα2β1β2γ3 expression [3]: also induce | p-AMPK/p-ACC and AMPKα2β1β2γ3 activation [4]: dosage-dependent manner | toxicity compared to reference compounds MK-8722 and PF-06409577 (G6PD release) (HCM cells): less toxicity | toxicity compared to reference compounds MK-8722 and PF-06409577 (G6PD release) (HepG2 cells): less toxicity
